Tests used:
Leishmania mexicana [1] = experiment: Inhibition of Leishmania mexicana GAPDH(glyceraldehyde-3-phosphate dehydrogenase); parameters: concentration or dose not given beside the values; conditions: concentration not given here
[2] = system: CC(C)=CCNc1ncnc2c1nc(-c1cccs1)n2C1O[C@H](CO)[C@@H](O)[C@H]1O
Description: Inhibition of human erythrocyte GAPDH(glyceraldehyde-3-phosphate dehydrogenase) expressed as KM value

Leishmania mexicana [3] = system: Leishmania mexicana
Description: Inhibition of Leishmania mexicana GAPDH(glyceraldehyde-3-phosphate dehydrogenase) expressed as KM value

Sequence of Glyceraldehyde-3-phosphate dehydrogenase (Homo sapiens), P04406 (P04406 whole entry): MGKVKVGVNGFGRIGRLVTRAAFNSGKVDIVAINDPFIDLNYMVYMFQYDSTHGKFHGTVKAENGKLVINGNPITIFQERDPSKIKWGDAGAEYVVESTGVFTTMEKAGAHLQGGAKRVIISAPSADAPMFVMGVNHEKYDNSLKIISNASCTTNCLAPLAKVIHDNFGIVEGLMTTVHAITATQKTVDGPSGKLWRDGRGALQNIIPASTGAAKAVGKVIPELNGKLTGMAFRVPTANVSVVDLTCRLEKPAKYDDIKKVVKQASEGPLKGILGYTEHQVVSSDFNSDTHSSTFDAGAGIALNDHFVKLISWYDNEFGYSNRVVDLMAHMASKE

Compound	inhibition (Leishmania mexicana [1])	other results
CC(C)=CCNc1ncnc2c1ncn2[C@@H]1O[C@H](CO)[C@@H](O)[C@H]1O	84%	
CN(C)c1nc2c(N)ncnc2n1C1O[C@H](CO)[C@@H](O)[C@H]1O (some centres undefined)	75%	
Nc1ncnc2c1ncn2C1O[C@H](COC(=O)CCC(=O)O)[C@@H](O)[C@H]1O (some centres undefined)	100%	
Cc1ccccc1CNc1ncnc2c1nc(-c1cccs1)n2C1O[C@H](CO)[C@@H](O)[C@H]1O (some centres undefined)	100%	
Nc1ncnc2c1nc(N1CCCCC1)n2[C@@H]1O[C@H](CO)[C@@H](O)[C@H]1O	100%	
NC(=O)CCC(=O)NC[C@H]1OC(n2cnc3c(NCc4ccccc4)ncnc32)[C@H](O)[C@@H]1O (some centres undefined)	74%	
O=C(CC1CCCCC1)NC[C@H]1OC(n2cnc3c(NCc4ccccc4)ncnc32)[C@H](O)[C@@H]1O (some centres undefined)	77%	
Nc1ncnc2c1nc(NCc1ccccc1)n2[C@@H]1O[C@H](CO)[C@@H](O)[C@H]1O	100%	
O=C(Cc1ccccc1)NC[C@H]1OC(n2cnc3c(NCc4ccccc4)ncnc32)[C@H](O)[C@@H]1O (some centres undefined)	77%	
O=C(NC[C@H]1OC(n2cnc3c(NCc4ccccc4)ncnc32)[C@H](O)[C@@H]1O)c1cc(O)cc(O)c1 (some centres undefined)	100%	
Nc1ncnc2c1ncn2[C@@H]1O[C@H](COC(=O)c2ccccc2)[C@@H](O)[C@H]1O	67%	
OC[C@H]1OC(n2c(-c3cccs3)nc3c(NCc4ccccc4)ncnc32)[C@H](O)[C@@H]1O (some centres undefined)	100%	
Nc1ncnc2c1nc(N1CCCC1)n2C1O[C@H](CO)[C@@H](O)[C@H]1O (some centres undefined)	100%	
O=C(O)CCCC(=O)NC[C@H]1OC(n2cnc3c(NCc4ccccc4)ncnc32)[C@H](O)[C@@H]1O (some centres undefined)	79%	
COc1cccc(C(=O)N[C@@H]2[C@H](O)[C@@H](COC(=O)c3ccccc3C(=O)O)O[C@H]2n2cnc3c(NCc4ccccc4)ncnc32)c1	100%	
Glyceraldehyde-3-phosphate dehydrogenase (Homo sapiens), P04406		Km [2]: 40 µM
Nc1ncnc2c1ncn2C1O[C@H](COC(=O)c2ccc3ccccc3c2)[C@@H](O)[C@H]1O (some centres undefined)	100%	
Nc1ncnc2c1nc(NCCO)n2C1O[C@H](CO)[C@@H](O)[C@H]1O (some centres undefined)	80%	
CC(C)=CCNc1ncnc2c1nc(-c1cccs1)n2C1O[C@H](CO)[C@@H](O)[C@H]1O (some centres undefined)		Km (Leishmania mexicana [3]): 400 µM

Reference: ChEMBL document CHEMBL1130706, “Synthesis and structure-activity relationships of adenosine analogs as inhibitors of trypanosomal glyceraldehyde-3-phosphate dehydrogenase. Modifications at positions 5' and 8” (Bioorg Med Chem Lett, 1998)
